# Like-named read-outs stand apart in the source and are kept apart here.
# Columns and labels:
# [1] = test system: Winter wheat cv Alchemy; test: Safening of herbicides (Chlorotoluron, Isoproturon, Flumioxazin), winter wheat
# Description: (§1) Safening systems were applied to crops of oilseed rape and winter treated with various herbicides (Bifenox (with insecticide), Carbetamide, Propaquizafop, Chlorotoluron, Isoproturon, Flumioxazin). The safening system and the herbicide were applied to the crops either simultaneously or sequentially.
# (§2) Oilseed rape: cv Excalibur, sown 26 Apr. 2008, at two seeds per 9 cm pot, sown in normal pH multi-purpose compost. Date of spraying: 6 June; Dates of measurement/scoring: 13 June, 20 June, 5 July. Winter wheat: cv Alchemy, sown 23 Apr. 2008, at seven seeds per 9 cm pot, sown in normal pH multi-purpose compost. Date of spraying: 24 May; Dates of measurement/scoring: 31 May, 7 June, 21 June. SAF: at least one from class (f) each at <3 g/l, plus at least one from class (c).
# (§3) Statistical Layout: Randomised Complete Block trials, under glasshouse conditions, United Kingdom.
# [2] = test system: Maize cv Sundance (i.e. not Roundup Ready); conditions: no glyphosate
# [3] = test system: PEA cv Ragtime; test: Root nodulation and safening, pea, compost of normal pH (Example 7.6); conditions: compost of normal pH (6.5)
# Description: (§4) The safener/safening system and the fertiliser were applied to the crops either simultaneously or sequentially.
# (§5) Co=100% Cobalt Sulphate (20 g per litre and per hectare). FF1=20 g per litre Cobalt Sulphate (as per Co above) plus “Miracle-Gro” at xl recommended rate (applied at 15 g per 2.5 sq metres). Miracle-Gro contains: 24% N, 4% P, 13% K, plus 0.02% B, 0.03% Cu, 0.19% Fe, 0.05% Mn, 0.001% Mo and 0.03% Zn. FF2=20 g per litre Cobalt Sulphate plus Miracle-Gro at ×2 recommended rate. SAF: at least one from class (f) each at <3 g/l, plus at least one from class (c).
# PEA—TRIAL 7.6—cv Ragtime. Dates as per Example 7.5 above, but sown in compost of normal pH (6.5). […] No inoculum was applied.
# [4] = test system: Oilseed rape cv Excalibur; conditions: for Greenness (0-9) (9 = Deeper Green) + 14 Days / Vigour (0-9) (9 = Most Vigour) + 14 days / Greenness (0-9) + 28 Days / Vigour (0-9) + 28 Days: score 0-9
# Description: as §1, §2, §3
# [5] = test system: NAVY BEAN cv Mogex; test: Root nodulation and safening, navy bean, compost of low pH (Example 7.3); conditions: compost of low pH (5.0-5.5)
# Description: as §4, §5
# NAVY BEAN cv Mogex. Scored/Counted+28 Days after Spraying. Sown in Compost of low pH (5.0-5.5) on 29 Apr. 2008. Spray Date (VC)=27 May, V1 Date=16 June. Scored/Measured on 11 July. Each treatment represents the mean value of 12 plants, within four replicates. No inoculum applied.
# [6] = test system: Winter Wheat cv Limerick; test: Safening of fertilisers, pot trial: phytotoxicity and vigour scores, winter wheat; type: in vivo; conditions: in vivo
# Description: The safening system and the fertilizer were applied either simultaneously or sequentially.
# Sprayed: mid-tillering phase (GS23). Winter Wheat: cv Limerick, sown 4 Jun. […] Sprayed: mid-tillering phase (GS23). Lettuce: cv Set, sown 10 Jul. 2008, at one seed per pot, in John Innes No 1 compost. Date of spraying: 30 July; Dates of measurement: 7 August, 14 August, 28 August. Sprayed: 2 true leaf stage.
# [7] = test system: Winter Barley cv Saffron; conditions: for Vigour (0-9) (9 = Most Vigour) + 14 days: score 0-9, 9 = Most Vigour; for Vigour (0-9) + 28 Days: score 0-9, +28 days
# Description: (§6) The safening system and the fungicide were applied to the crops either simultaneously or sequentially, either as foliar applications or as a seed treatment.
# (§7) Winter Barley: cv Saffron, sown 27 May 2008, at four/five seeds per 9 cm pot, sown in standard multi-purpose compost of pH 6.5. Date of spraying: 23 July; Dates of measurement/scoring: 30 July, 14 August, 22 August. Sprayed: mid-tillering phase (GS23). Winter Wheat: cv Limerick, sown 4 Jun. 2008, at four/five seeds per 9 cm pot, sown in standard multi-purpose compost of pH 6.5. Date of spraying: 23 July; Dates of measurement/scoring: 30 July, 14 August, 23 August. Sprayed: mid-tillering phase (GS23). Maize: cv Sundance, sown 25 May 2008, at 10 seeds per 25 cm pot, in John Innes No 1 compost. Date of measurement/assessment: 15 June. Seed treatment trial. Randomised block, mean of five replicates.
# (§8) SAF: at least one from class (f) each at <3 g/l, plus at least one from class (c).
# [8] = test system: Winter Wheat cv Limerick; conditions: +14 days
# Description: as §6, §7, §8
# [9] = herbicide Bifenox (with insecticide), Table 3.1
# [10] = herbicides Carbetamide and Propaquizafop, Table 3.2
# [11] = +28 days, herbicide Bifenox (with insecticide), Table 3.1
# [12] = +28 days, herbicides Carbetamide and Propaquizafop, Table 3.2
# [13] = Table 2.1, fungicide Prochloraz
# [14] = Table 2.2, fungicide Flutriafol
# [15] = Table 2.3, fungicides Fenpropidin and Flutriafol
compound,measurement,setting,value
"CC(=O)Nc1ccc(O)cc1 [AC, N-(4-hydroxypheyl)acetamide, reference compound]",Greenness (0-9) (9 = Deeper Green) + 14 Days,"[1]; Table 3.3, no herbicide",8.0
same,Greenness (0-9) + 28 Days,"[1]; Table 3.3, no herbicide",8.0
same,Phytotoxicity (0-9) + 28 Days,"[1]; Table 3.3, no herbicide",8.0
same,Greenness (0-9) (9 = Deeper Green) + 14 Days,"[1]; Table 3.4, no herbicide",8.0
same,Greenness (0-9) + 28 Days,"[1]; Table 3.4, no herbicide",8.0
same,Phytotoxicity (0-9) + 28 Days,"[1]; Table 3.4, no herbicide",8.0
same,Greenness (0-9) (9 = Deeper Green) + 14 Days,"[1]; Table 3.5, no herbicide",8.0
same,Greenness (0-9) + 28 Days,"[1]; Table 3.5, no herbicide",8.0
same,Phytotoxicity (0-9) + 28 Days,"[1]; Table 3.5, no herbicide",8.0
same,Phytotoxicity (0-9) (0 = Dead) + 41 days,"[2]; scale 0-9, 0=dead, 9=least phytotoxicity, 41 days",8.0
same,Vigour (0-9) + 14 Days,"[2]; scale 0-9, 0=least vigour, 9=most vigour, 14 days",8.0
same,Vigour (0-9) + 28 Days,"[2]; scale 0-9, 0=least vigour, 9=most vigour, 28 days",8.0
same,Vigour (0-9) + 41 Days,"[2]; scale 0-9, 0=least vigour, 9=most vigour, 41 days",8.0
same,Nodules Per Plant (V1),"[3]; V1, no inoculum",15.4
same,Nodulation Score (0-9) (V1),"[3]; V1, score 0-9",4.9
same,Phyto-Toxicity Score (0-9) (V1),"[3]; V1, score 0-9",7.0
same,Vigour Score (0-9) (V1),"[3]; V1, score 0-9",6.7
same,Nodules Per Plant (VC),[3]; VC,16.4
same,Nod Score (0-9) (VC),"[3]; VC, score 0-9",5.0
same,Phytotoxicity (0-9) + 28 Days,"[4]; score 0-9, 0 = dead, +28 days, herbicides Carbetamide and Propaquizafop, Table 3.2",8.0
same,Greenness (0-9) (9 = Deeper Green) + 14 Days,[4]; [9],8.0
same,Vigour (0-9) (9 = Most Vigour) + 14 days,[4]; [9],8.0
same,Greenness (0-9) (9 = Deeper Green) + 14 Days,[4]; [10],8.0
same,Vigour (0-9) (9 = Most Vigour) + 14 days,[4]; [10],8.0
same,Greenness (0-9) + 28 Days,[4]; [11],8.0
same,Vigour (0-9) + 28 Days,[4]; [11],8.0
same,Greenness (0-9) + 28 Days,[4]; [12],8.0
same,Vigour (0-9) + 28 Days,[4]; [12],8.0
same,Nodules Per Plant (V1),"[5]; V1, +28 days after spraying, no inoculum",19.3
same,Nodulation Score (0-9) (V1),"[5]; V1, score 0-9",3.1
same,Phyto-Toxicity Score (0-9) (V1),"[5]; V1, score 0-9",5.6
same,Vigour Score (0-9) (V1),"[5]; V1, score 0-9",6.0
same,Nodules Per Plant (VC),[5]; VC,22.1
same,Nod Score (0-9) (VC),"[5]; VC, score 0-9",3.5
same,Phytotoxicity (0-9) (0 = Dead) + 14 Days,[6],7.0
same,Vigour (0-9) (9 = Most Vigour) + 14 days,[7]; [13],7.0
same,Vigour (0-9) + 28 Days,[7]; [13],8.0
same,Vigour (0-9) (9 = Most Vigour) + 14 days,[7]; [14],7.0
same,Vigour (0-9) + 28 Days,[7]; [14],8.0
same,Vigour (0-9) (9 = Most Vigour) + 14 days,[7]; [15],7.0
same,Vigour (0-9) + 28 Days,[7]; [15],8.0
same,Vigour (0-9) (9 = Most Vigour) + 14 days,"[8]; Table 2.4, winter wheat, fungicide Prochloraz, score 0-9, 9 = Most Vigour",7.0
same,Vigour (0-9) (9 = Most Vigour) + 14 days,"[8]; Table 2.5, winter wheat, fungicide Flutriafol, score 0-9, 9 = Most Vigour",7.0
same,Vigour (0-9) (9 = Most Vigour) + 14 days,"[8]; score 0-9, 9 = most vigour, foliar, fungicides Fenpropidin and Flutriafol, Table 2.6",7.0

# From patent US20120088667A1, “SAFENING AGENT” (priority 2009, published 2012)
